The values that follow come from patent US20090053138A1, “Stabilized Aptamers to Platelet Derived Growth Factor and their Use as Oncology Therapeutics” (priority 2002, published 2009).

pKd: −log10 of the molar value. [HEG] = hexaethylene glycol spacer joining aptamer pieces; [invdT] = inverted (3'-3') thymidine

Series [1] has as its target T1, PDGF AB (Homo sapiens, UniProt P01127). Briefly: Binding of ARC124 to PDGF AB.
The target in series [2] is T2, PDGF BB (Homo sapiens, UniProt P01127). The series is described as follows: Binding of ARC124 to PDGF BB.
Series [3] deals with T2, PDGF BB. Briefly: Competition binding assay, PDGF-BB. The arrangement: purchased PeproTech, Rocky Hill, N.J. Particulars: human PDGF-BB; read-out: Kd. On the procedure: Binding reactions were carried out in phosphate-buffered saline (Cellgro, Herndon, Va.) containing 0.2 mg/mL bovine serum albumin (NEB) and 0.02 mg/mL tRNA (Sigma, St. Louis, Mo.). The reactions were equilibrated for a period of 15-30 minutes at room temperature, then filtered through a sandwich of nitrocellulose (Protran membrane, Perkin-Elmer, Boston, Mass.) and nylon (Hybond membrane, Amersham, Piscataway, N.J.) membranes to separate target bound aptamer from free aptamer.
(§1) Next, a study was done to determine whether ARC126 cross reacted with PDGF-BB of species other than human. Competition binding assays were set up by dot blot analysis, as previously described, using human, rat, and mouse PDGF-BB (PeproTech, Rocky Hill, N.J.).
(§2) The competitive binding assay previously described was used to determine the in vitro binding affinity and selectivity of ARC594 for different PDGF isoforms. Different concentrations of unlabeled, competitor aptamer were titrated in separate reactions against a fixed (<0.1 nM) amount of ^32P-radiolabeled ARC594 in buffer containing a fixed amount (0.1 nM) of the aptamer's cognate target (PDGF-BB; PeproTech). UnPEGylated version of ARC594 was radiolabeled at the 5′ terminus by incubation with γ-^32P-ATP (ICN) and polynucleotide kinase (NEB). Binding reactions were carried out in phosphate-buffered saline (Cellgro) containing 0.2 mg/mL bovine serum albumin (NEB) and 0.02 mg/mL tRNA (Sigma). The reactions were equilibrated for a period of 15-30 minutes at room temperature, then filtered through a sandwich of nitrocellulose (Protran membrane, Perkin-Elmer) and nylon (Hybond membrane, Amersham) membranes to separate target bound aptamer from free aptamer. […] The data was expressed as the ratio of the counts per minute (CPM) of radioactivity due to ^32P-ARC594 bound to PDGF BB on the nitrocellulose membrane (CPMnitrocellulose or CPMnc) over the total CPM (CPMtotal=CPMnitrocellulose+CPMnylon).

Series [4] deals with T1, PDGF AB. Briefly: Competition binding assay, PDGF-AB. The arrangement: purchased PeproTech, Rocky Hill, N.J.
Source text: as §1
as §2, with “(Sigma).” for “(Sigma). The reactions were equilibrated for a period of 15-30 minutes at room temperature, then filtered through a sandwich of nitrocellulose (Protran membrane, Perkin-Elmer) and nylon (Hybond membrane, Amersham) membranes to separate target bound aptamer from free aptamer.”

Series [5] concerns the target T2, PDGF BB. The series is described as follows: 3T3 cell proliferation assay (PDGF-BB induced). It counts as cell-based, rat. Details: purchased PeproTech, Rocky Hill, N.J. Particulars: after lyophilization and storage at −20 degrees celsius for 2 years. On the procedure: 3T3 cells, a rat fibroblast cell line (ATCC, Manassas, Va.), were plated 3,000 cells/well in a 96 well plate one day prior to the start of the assay in 100 ul DMEM/10% FCS. The following day, cells were washed once with straight DMEM and then 75 ul DMEM/0.8% FCS was added to each well. […] Cells were incubated for 3 days. Following incubation 10 ul MTT (Promega, Madison, Wis.) was added to each well and incubated for an additional 1.5 hours. Media was then removed, 200 ul Isopropanol (2-propanol) was added to each well, cells were re-suspended thoroughly and absorbance at 570 nm was read on a 96 well plate reader.
(§3) 3T3 cells, which are derived from a rat fibroblast cell line (ATCC, Manassas, Va.), were used in a proliferation assay to test potency of modified ARC513 aptamers. 3T3 fibroblast cells have PDGF receptors on their cell-surface and respond to mitogen, e.g., PDGF stimulation by proliferation. The assay was performed as follows: 3T3 cells were plated 3,000 cells/well in a 96 well plate one day prior to the start of the assay in 100 ul DMEM/10% FCS. The following day, cells were washed once with straight DMEM and then 75 ul DMEM/0.8% FCS was added to each well. Then 25 ul of PDGF-BB (PeproTech, Rocky Hill, N.J.) at a 50 ng/ml final concentration was added to each well +/− aptamer condition to be tested. […] The functional PDGF aptamer dilutions usually consisted of 6 points in 2-fold serial dilutions.
Cells were incubated for 3 days. Following incubation 10 ul MTT (Promega, Madison, Wis.) was added to each well and incubated for an additional 1.5 hours. Media was removed, 200 μl Isopropanol (2-propanol) was added to each well, cells were re-suspended thoroughly and absorbance at 570 nm was read on a 96 well plate reader. The present example depicts the potency comparison of PDGF aptamer ARC: 513 to that of ARC 513 variants.
The 3T3 proliferation assay previously described was used to test potency of all PEG conjugated ARC513 variants described immediately above. The assay was performed as follows: 3T3 cells were plated 3,000 cells/well in a 96 well plate one day prior to the start of the assay in 100 ul DMEM/10% FCS. The following day, cells were washed once with straight DMEM and then 75 ul DMEM/0.8% FCS was added to each well. Then 25 ul of PDGF-BB (PeproTech, Rocky Hill, N.J.) at a 50 ng/ml final concentration was added to each well +/− aptamer condition to be tested. […] The functional PDGF aptamer dilutions usually consisted of 6 points in 2-fold serial dilutions.
Cells were incubated for 3 days. Following incubation 10 ul MTT (Promega, Madison, Wis.) was added to each well and incubated for an additional 1.5 hours. Media was removed, 200 μl Isopropanol (2-propanol) was added to each well, cells were re-suspended thoroughly and absorbance at 570 nm was read on a 96 well plate reader. The present example depicts the potency comparison of PDGF aptamer ARC513 to that of PEGylated ARC513 aptamers.
as §3, with “3T3” for “3T3 cells, which are derived from a rat fibroblast cell line (ATCC, Manassas, Va.), were used in a proliferation assay to test potency of modified ARC513 aptamers. 3T3”, “100 μl” for “100 ul”
Cells were incubated for 3 days. Following incubation 10 ul MTT (Promega, Madison, Wis.) was added to each well and incubated for an additional 1.5 hours. Media was removed, […] Isopropanol (2-propanol) was added to each well, cells were re-suspended thoroughly and absorbance at 570 nm was read on a 96 well plate reader.

Series [6] has as its target T2, PDGF BB. The series is described as follows: Dot-blot binding assay, PDGF BB. Particulars: entirely DNA ARC126 used in the multivalent aptamer. On the procedure: Binding data for the constituent aptamers and the multivalent aptamers were collected by dot-blot assays in which radio-labeled aptamer is incubated with protein target and then forced through a sandwich of nitrocellulose over nylon and the results shown in FIG. 22. Protein-associated radio-label is captured on the nitrocellulose membrane while the balance of the radio-label is captured on the nylon membrane. The radio-label data is collected on a phosphorimaging plate. […] The multivalent aptamers TK.131.012.A (SEQ ID NO. 9) and TK.131.012.B (SEQ ID NO. 10) were made synthetically.

For series [7], the target named is T3, PDGF-BB (Mus musculus, UniProt P31240).
T3 construct: purchased PeproTech, Rocky Hill, N.J
Briefly: Competition binding assay, mouse PDGF-BB.
Source text: as §1

In series [8] the target is T4, PDGF-BB (Rattus norvegicus, UniProt Q05028).
T4 construct: purchased PeproTech, Rocky Hill, N.J
The series is described as follows: Competition binding assay, rat PDGF-BB.
Source text: as §1

The next series has as its target T5, PDGF-AA (Homo sapiens, UniProt P04085).
T5 construct: purchased PeproTech, Rocky Hill, N.J
The series is described as follows: Competition binding assay, PDGF-AA.
Source text: as §1
as §2, with “(Sigma).” for “(Sigma). The reactions were equilibrated for a period of 15-30 minutes at room temperature, then filtered through a sandwich of nitrocellulose (Protran membrane, Perkin-Elmer) and nylon (Hybond membrane, Amersham) membranes to separate target bound aptamer from free aptamer.”

Series [9] deals with HT29 colon cancer xenograft. The series is described as follows: HT29 colon cancer xenograft model. It counts as in vivo, Nu/Nu mice. Particulars: GLEEVEC 50 mg/kg orally BID Qd5 + irinotecan 150 mg/kg weekly vs irinotecan alone.
Series [10] has as its system LS174T colon cancer xenograft. Particulars: Monday through Friday. The text has this: Experimental overview. Human HT-29 or LS174T colon cancer xenotransplants were established in athymic nude mice (Nu/Nu mice, Charles River Labs, Wilmington, Mass.) by injecting mice with 1×10^7 HT29 cells (ATCC, Manassas, Va.), or 2×10^6 LS174T cells (ATCC Manassas, Va.) sub-cutaneously and allowing the tumors to grow for 5 days. On day 5, two dimensional measurements of the established tumors were taken using a digital caliper. Once tumor measurements were taken, the mice were randomized into groups such that the average tumor size was the same in each group. […]
A third experiment (Experiment 3) was designed to test ARC308/irinotecan and GLEEVEC™/irinotecan dosing regimens in a colon cancer xenotransplant model using human colon carcinoma cell line LS174T (ATCC). […] ARC308 was dosed via intraperitoneal delivery at 50 mg/kg once daily, and GLEEVEC™ was dosed at 50 mg/kg once daily, Monday through Friday. ARC308 prevents PDGF-BB from binding the PDGF receptor; this molecule has a 30K PEG attached. […] The results are statistically significant (two tailed students T-test).
An efficacy analysis of three treatment groups in this study is shown in Table 10 in terms of log cell kill and log cell kill net. Log cell kill is the log(base10) of the number of tumor cells before treatment divided by the number of cells after treatment. […] A fourth experiment (Experiment 4) was designed to further test ARC308/irinotecan dosing regimens in a colon cancer xenotransplant model using human colon carcinoma cell line LS174T (ATCC). […]

In a further series the test system is HCT-116 tumor. Particulars: irinotecan 100 mg/kg plus Gleevec 50 mg/kg orally twice a day.

T2 sequence (P01127 82-190 limits assumed): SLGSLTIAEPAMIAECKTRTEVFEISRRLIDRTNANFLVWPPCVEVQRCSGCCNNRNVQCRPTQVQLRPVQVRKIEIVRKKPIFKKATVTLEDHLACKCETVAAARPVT
T3 sequence (P31240 82-190 limits assumed): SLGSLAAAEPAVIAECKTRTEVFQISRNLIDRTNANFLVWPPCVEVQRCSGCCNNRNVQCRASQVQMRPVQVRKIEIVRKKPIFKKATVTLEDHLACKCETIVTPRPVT
T4 sequence (Q05028 66-174 limits assumed): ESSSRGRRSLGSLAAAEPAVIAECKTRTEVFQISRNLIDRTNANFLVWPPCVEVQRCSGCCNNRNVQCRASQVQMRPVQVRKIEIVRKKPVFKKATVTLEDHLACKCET
T1 sequence (P01127 82-190 limits assumed, other chains not shown): as the sequence (P01127 82-190 limits assumed) above
Protocol for HCT-116 tumor: Each group was assigned to a treatment regimen as follows. […] Doses were adjusted for changing body weight twice per week and all mice were dosed with vehicle or aptamer at 10 ml of dosing solution per kg body weight given intraperitoneally. […] Groups 3, 10 and 11 were dosed with vehicle intraperitinoneally once per day from days 8-25. Groups 3, 5, 7, 8, and 9 were dosed on day 11, 18 and 25 with irintoecan (100 mg/kg, intraperitoneally). […] Group 11 was dosed on day 11 and 25 with irintoecan (100 mg/kg, intraperitoneally) and twice a day with imatinib at 50 mg/kg given orally on days 8-12 and 23-25.
The aptamer was allowed to come to room temperature for an hour before dosing. Unused material was stored at 4° C. for use the next day. Normal saline for the vehicle control was sterile filtered into sample vials and stored in the same manner as the aptamer dosing solutions. Aptamer and vehicle dosing solutions were coded so that the personnel dosing were blinded from their identity.

With “5′ CACAGGCTACGGCACGTAGAGCATCACCATGATCCTGTG-3′InvdT (SEQ ID NO:11) (DNA, 3' [invdT], backbone not given here) [ARC124]”, the pKd with PDGF AB [1] and with PDGF BB [2] was roughly 10.00 each time.

Turning to “5′-(SEQ ID NO: 1)-HEG-(SEQ ID NO:2)-HEG-(SEQ ID NO:3)-3′-dT-3′ (chain 1 CAGGCUACG; chain 2 CGTAGAGCAUCA; chain 3 TGATCCUG; piece 1: 2'-fluoro at 6, 8, 2'-O-methyl at 9, 3' [HEG], other sugars and backbone not given here; piece 2: 2'-O-methyl at 5, 7, 12, 2'-fluoro at 10, 11, 3' [HEG], other sugars and backbone not given here; piece 3: 2'-fluoro at 5, 6, 7, 2'-O-methyl at 8, 3' [invdT], other sugars and backbone not given here) [ARC126]”, the pKd with PDGF BB [3], in the series with PDGF AB [4], in the series with PDGF BB [6], with PDGF-BB [7] (read-out: affinity for mouse PDGF-BB) and in the series with PDGF-BB [8] (read-out: affinity for rat PDGF-BB) was roughly 10.00 in each case. The “potency of legacy aptamers vs newly synthesized” value with PDGF BB [5] is reported as “just as potent”. For the same compound, in the series with PDGF-BB [7], the “affinity for mouse PDGF-BB” value was “equal affinity”. For the same compound, the “affinity for rat PDGF-BB” value with PDGF-BB [8] is given as “equal affinity”. In addition, in the series with PDGF-AA, the “binding to PDGF-AA” value is given as “does not bind”.

As to `Cc1ccc(NC(=O)c2ccc(CN3CCN(C)CC3)cc2)cc1Nc1nccc(-c2cccnc2)n1` [GLEEVEC™, imatinib, reference compound], the “efficacy of irinotecan (rate of tumor growth)” value in series [9] was “enhanced the efficacy of irinotecan treatment”; in [10] (Experiment 3: GLEEVEC 50 mg/kg once daily, P.O + irinotecan) it was “did not enhance the efficacy of Irinotecan”. The “tolerability of dosing regimen” value in series [10] (Experiment 2: GLEEVEC 100 mg/kg once daily, P.O.) was “made the animals moribund”. Further, the “mice dead by day 17” value with HCT-116 tumor was 4 of 12.
